Holding throughout (assay type): cell-based
In test [1] the test system is human brain microvascular endothelial cells (hBMECs). Description: Endothelial cell migration and wound-healing assay. The following applies: at 3 μM and above, 24 hours. The procedure: Culture of human brain microvascular endothelial cells: Human brain microvascular endothelial cells (hBMECs) were cultured with EGM-2MV Microvascular Endothelial Cell Medium-2 1 kit Bullet Kit, 5% fetal bovine serum, with or without treatments with synthetic matrix metalloproteinase inhibitors (MMPIs), at 37° C. and 5% CO2.
Endothelial cell migration and wound-healing assays: All experiments for this phase were performed in triplicate, and each consisted of […] wounded cultures utilizing serial concentrations of MMPIs: (1) an untreated control; (2) 100 μM MMPI; (3) 30 μM MMPI; (4) 10 μM MMPI; (5) 3 μM MMPI; (6) 1 μM MMPI; (7) 100 nM MMPI; (8) 10 nM MMPI; and (9) 1 nM MMPI. A 1 mL pipette tip was utilized to create a linear wound in a confluent monolayer of hBMECs. A fine, sterile needle was used to demarcate a cell-free “wounded field”. All cultures were photographed at that time. After 24 hours, the wounded cell culture was washed three times with phosphate buffered saline, fixed with 4% paraformaldehyde for 10-20 min, and stained with 0.1% crystal violet for 10-20 min. The stained culture was washed with ddH2O three times and left overnight to air dry. […] The density of the cell coverage in the wounded field was quantified utilizing the integrated morphometry analysis (IMA) (Metamorph System v.4.6r8, University Imaging Corp.). […]

Test [2] relates to human mesenchymal stem cells (hMSC). Description: MMPI cytotoxicity / growth of hMSC (trypan blue count). Particulars: 1 nM to 100 μM, 24 hours. The procedure: Passage 3 human adult bone marrow-derived mesenchymal stem cells (hMSCs, Tulane Center for Gene Therapy) were plated for a recovery phase of 24 hours at 37° C. and 5% CO2 in Alpha Minimum Essential Medium (αMEM, Sigma Aldrich) containing L-glutamine but without ribonucleosides or deoxyribonucleosides, 16.5% FBS, ˜2-4 mM L-glutamine, and penicillin and streptomycin as antibiotics. After the recovery phase, hMSCs were seeded into 6-well plates at a density of ˜60 cells/cm^2 within each well containing 2 mL of cell culture medium. Fresh cell culture medium was added every 3 days until the cells reached a confluency of approximately ˜70% at which media was changed to the conditioned forms necessary for observing MMPI cytotoxicity.
Upon reaching the desired confluency, each cell type was treated with the respective fresh media that was conditioned with a logarithmic panel of MMPI concentrations ranging from 1 nM to 100 μM. Specifically, each of the inhibitors were dissolved in an appropriate amount of 100% EtOH to generate 8 mM stock solutions from which an aliquot was used to produce serial dilutions with either SmBm or αMEM. The conditioned media was added to either hCASMCs or hMSCs and incubated for 24 hours. […] In order to quantify the levels of toxicity these inhibitors had on hCASMC and hMSC growth and viability, the cells were treated with trypan blue and counted via a hemocytometer. […]

Test [3] deals with human coronary artery smooth muscle cells (hCASMC). Description: MMPI cytotoxicity / growth of hCASMC (trypan blue count). The following applies: 24 hours. As for the experimental part:
Passage 7 human coronary artery smooth muscle cells (hCASMCs) were plated in a 10 cm dish containing 20 mL of smooth muscle basal medium (SmBm, Lonza, Cat. No. CC-3182) supplemented with 0.1% insulin, 0.1% epidermal growth factor (rhEGF), 0.2% fibroblast growth factor-B (rhFGF-B), 0.1% gentamicin/amphotericin (antibiotics), and 5% FBS. The cells were incubated for 24 hours at 37° C. and 5% CO2, with 20 mL of fresh SmBm added the following day. Fresh SmBm was added every 2 days until the culture was ˜70-80% confluent and contained a minimum of 5 mitotic figures when viewed at 100× magnification. At this time, cells were then trypsinized and seeded into 24-well plates at an initial density of 3,500 cells/cm^2 and grown to ˜60% confluence prior to MMPI treatment.
Upon reaching the desired confluency, each cell type was treated with the respective fresh media that was conditioned with a logarithmic panel of MMPI concentrations ranging from 1 nM to 100 μM. Specifically, each of the inhibitors were dissolved in an appropriate amount of 100% EtOH to generate 8 mM stock solutions from which an aliquot was used to produce serial dilutions with either SmBm or αMEM. […] In order to quantify the levels of toxicity these inhibitors had on hCASMC and hMSC growth and viability, the cells were treated with trypan blue and counted via a hemocytometer. […]

Structures can show the parent of a compound that is named as a salt.

As for `NC(=O)N1C[C@H](NS(=O)(=O)c2ccc(Oc3ccccc3)cc2)[C@@H](S)C1` (racemic) [Example 1, (±)-N-Carbamoyl-trans-3-(4-phenoxybenzenesulfonamido)-4-mercaptopyrrolidine], the “inhibition on hBMEC wound healing” value in test [1] was “pretty good inhibition”. Further, the hMSC growth curve entry in test [2] was “erratic results”.

Regarding `O=S(=O)(N[C@H]1CNC[C@@H]1S)c1ccc(Oc2ccccc2)cc1` (racemic) [Example 3, (±)-trans-3-(4-Phenoxybenzenesulfonamido)-4-mercaptopyrrolidine Hydrochloride], the hCASMC growth entry in test [3] (lower concentrations, compared to identical concentrations of YHJ-6-286 and YHJ-7-23) was “increased hCASMC growth nearly two-fold”.

On to `CN([C@H]1CN(C(N)=O)C[C@@H]1S)S(=O)(=O)c1ccc(Oc2ccccc2)cc1` (racemic) [Example 4, (±)-N-Carbamoyl-trans-3-(N-methyl-4-phenoxybenzenesulfonamido)-4-mercaptopyrrolidine], for which the hCASMC growth curve entry in test [3] (1 nM to 100 μM) was “local minimum originating at 300 nM and minimizing at ˜30 nM”. Further, the hMSC growth curve result in test [2] is recorded as “steadily increased as the concentration of YHJ-7-23 was decreased”.

The record behind these values is patent publication US8404866B2, “Substituted heterocyclic mercaptosulfonamide metalloprotease inhibitors” (Florida State University Research Foundation, priority 2008, dated 2013).
